In US7176281B2 (priority 2003, dated 2007):
Where a SMILES comes first, the peptide text is derived from it.

Legend:
[1] = test system: mammalian (human and rat) type IIA sPLA2; format: binding
[2] = test system: Tg197 transgenic mice (chronic inflammatory polyarthritis); test: Tg197 transgenic mouse arthritis model, experiment 2 (4 weeks, time course); format: in vivo
Protocol: In experiment 2, mice were divided into 6 groups (A–F), and were injected i.p with 3 weekly doses (150 μg peptide in 50 μL DMSO per dose) of either the test peptide P-NT.II or the control peptide with the scrambled sequence for 4 consecutive weeks. Tg197 mice in Group B (n=18) were further divided into 4 sub-groups (B1, B2, B3, B4). At the end of 1st week, four Tg197 mice from Group B (sub-group B1) were sacrificed and both hind legs taken for histological processing and scorings. The remaining Tg197 mice from the other sub-groups B were continued with 3 regular doses of injections per week, and four Tg197 mice from each sub-group B2 and B3, were sacrificed at the end of 2nd and 3rd weeks, respectively. At the end of 4th week, all remaining Tg197 mice ([…]) were sacrificed for collection of joint specimens.
(§1) Disease monitoring was done by gross observations based on body weight measurements and arthritis scoring, which were done twice weekly after treatment until all the animals were sacrificed at 5th week in experiment 1, or at 4th week in experiment 2. Arthritis score (AS) was recorded on both ankle joints, and average scores as shown below were taken: • 0=no arthritis (normal appearance and flexion); • 0.5=onset of arthritis (mild joint swelling); • 1.0=mild arthritis (joint distortion); • 1.5=as above+finger deformation, less strength on flexion; • […]=moderate arthritis (severe swelling, joint deformation, no strength on flexion); • 2.5=as above+finger deformation in paws; • 3.0=heavy arthritis (ankylosis detected on flexion and severely impaired movement).
(§2) For histopathological scoring, both hind legs were dissected and fixed in 10% formaldehyde overnight, decalcified in citrate-buffered formic acid for 3 days at 4° C., and processed for light microscopy (LM). • Histopathological score (HS) was evaluated as follows: • 0=no detectable pathology, • 1=hyperplasia of the synovial membrane and presence of polymorphonuclear infiltrates • 2=pannus and fibrous tissue formation and focal subchondrial bone erosion • 3=articular cartilage destruction and bone erosion • 4=articular cartilage destruction and extensive bone erosion.
Transmission electron microscopy (TEM): Ankle joints dissected from the left hind leg of each mouse were split open longitudinally through the midline between the tibia and the talus, prefixed overnight with 2.5% glutaraldehyde in phosphate buffer, pH 7.4 (PB) and rinsed with PB. After fixing with 1% osmium tetroxide in PB for 2 h, they were dehydrated in a graded series of ethanol and processed into Araldite. Semi-thin sections (1.0μ) were cut and stained with methylene blue to observe the orientation and for histopathological scorings under the light microscope. Ultra-thin sections (80–90 nm) were then cut with an ultramicrotome (Riechert-Jung Ultracut E), mounted on copper grids, counterstained with uranyl acetate and lead citrate, and evaluated under electron microscope (CM120 Biotwin, FEI Company).
(§3) Anti-inflammatory activity of the candidate peptide P-NT.II was examined as a new treatment option for modulating rheumatoid arthritis (RA) in a transgenic animal model. To evaluate the potential effectiveness of the peptide as prophylaxis against RA, two separate experiments were performed in 4 week-old transgenic (Tg197) mice and non-transgenic wild-type (wt) mice. These transgenic mice (Tg197) express human tumor necrosis factor (TNFα), a cytokine which has been implicated in the pathogenesis of human RA.

[3] = test system: organotypic hippocampal slice cultures; test: Kainate-induced injury in organotypic hippocampal slice cultures, GluR1 immunoreactivity
[4] = test system: Tg197 transgenic mice (chronic inflammatory polyarthritis); test: Tg197 transgenic mouse arthritis model, experiment 1 (5 weeks); format: in vivo; conditions: for % of total joints, AS (1) / % of total joints, AS (1.5–2): 5 week post-treatment; for % of total at indicated HS scores, HS 2 / % of total at indicated HS scores, HS 3 / % of total at indicated HS scores, HS 4 / Mean HS ± SEM: 5 weeks
Protocol: The candidate peptide P-NT.II was dissolved in dimethyl sulfoxide (DMSO) at a final concentration of 3 mg/mL. Two sets of experiments were conducted. In Experiment 1 (n=28 Transgenic (Tg197)+7 wild type (wt), peptide-treated animals (Group B) received intra-peritoneal (i.p) injections of 10 mg/kg, thrice weekly for 5 consecutive weeks, while the vehicle controls (Group E) were injected with DMSO (3 mL/kg) only. Non-transgenic (wild type) mice in different groups (C, D) were similarly treated either with the same i.p dose of peptide or DMSO. At the end of the experiment following 5 weeks of peptide injection, each Tg197 mice received a total dose of 1.8 mg of peptide P-NT.II (0.9 μmole).
as §1, §2, §3

[5] = biological target: T1, Group IIA purified human synovial sPLA2 (Homo sapiens, UniProt P14555); test: In vitro inhibition of purified human synovial sPLA2, 3H-labelled E. coli membranes; format: biochemical; conditions: fixed peptide concentration 5 μM
T1 construct: purchased Cayman, USA
T1 sequence (P14555 21-144): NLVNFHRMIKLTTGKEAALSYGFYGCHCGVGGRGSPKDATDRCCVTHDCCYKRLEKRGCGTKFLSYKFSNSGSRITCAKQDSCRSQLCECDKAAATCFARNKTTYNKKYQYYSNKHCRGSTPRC

CC[C@H](C)[C@H](NC(=O)[C@H](Cc1ccc(O)cc1)NC(=O)[C@@H](NC(=O)CNC(=O)[C@H](CC(=O)O)NC(=O)[C@H](Cc1c[nH]c2ccccc12)NC(=O)[C@@H](NC(=O)[C@H](Cc1c[nH]cn1)NC(=O)[C@@H](NC(=O)[C@H](CC(=O)O)NC(=O)[C@@H](NC(=O)[C@H](CCCNC(=N)N)NC(=O)CNC(=O)[C@@H](N)CC(C)C)C(C)C)[C@@H](C)CC)C(C)C)C(C)C)C(=O)N[C@@H](CCCNC(=N)N)C(=O)NCC(=O)N[C@@H](CCCNC(=N)N)C(=O)O [P-NT.II] (H-LGRVDIHVWDGVYIRGR-OH; N-terminus and C-terminus assumed)
competition with labeled P-NT.II for binding to type IIA sPLA2 [1]: inhibited
% of total at indicated HS scores, HS 2 ([2]; 1 wk treatment): 100%
% of total at indicated HS scores, HS 3 ([2]; 1 wk treatment): 0%
% of total at indicated HS scores, HS 4 ([2]; 1 wk treatment): 0%
Mean HS ± SEM ([2]; 1 wk treatment): 2.12 ± 0.12
HS compared to untreated or scrambled peptide treated group ([2]; 1–4 weeks): significantly reduced HS
ultrastructural features of the articular chondrocytes (TEM) ([2]; 1–4 weeks post-treatment): did not significantly differ from those seen in the joints of normal wildtype mice
% of total at indicated HS scores, HS 2 ([2]; 2 wk treatment): 100%
% of total at indicated HS scores, HS 3 ([2]; 2 wk treatment): 0%
% of total at indicated HS scores, HS 4 ([2]; 2 wk treatment): 0%
Mean HS ± SEM ([2]; 2 wk treatment): 2.37 ± 0.12
% of total at indicated HS scores, HS 2 ([2]; 3 wk treatment): 75%
% of total at indicated HS scores, HS 3 ([2]; 3 wk treatment): 25%
% of total at indicated HS scores, HS 4 ([2]; 3 wk treatment): 0%
Mean HS ± SEM ([2]; 3 wk treatment): 2.50 ± 0.20
HS of synovitis, cartilage degradation and bone erosion ([2]; 4 weeks post-treatment, n=4/group): protective effect
% of total at indicated HS scores, HS 2 ([2]; 4 wk treatment): 75%
% of total at indicated HS scores, HS 3 ([2]; 4 wk treatment): 25%
% of total at indicated HS scores, HS 4 ([2]; 4 wk treatment): 0%
Mean HS ± SEM ([2]; 4 wk treatment): 2.62 ± 0.31
number of inflammatory cells in the synovium ([2]; as early as 1 week after initiation of treatment): reduced
joints either normal or only mildly affected by arthritis ([2]; first two weeks after peptide treatment): 100%
chondrocyte necrobiosis as well as bone erosions ([2]; histopathologic analysis of joints): significantly reduced
joints either normal or only mildly affected by arthritis ([2]; last two weeks after peptide treatment): 75%
GluR1 immunoreactivity of pyramidal neurons after kainate ([3]; 10 μM added before kainate): significantly prevented the decrease in GluR1 immunoreactivity
protection against kainite lesioned hippocampal slices ([3]; 6–10 μM): almost complete protection
% of total joints, AS (1) ([4]; 4 M + 3 F, 14 joints): 50%
% of total joints, AS (1.5–2) ([4]; 4 M + 3 F, 14 joints): 50%
% of total at indicated HS scores, HS 2 ([4]; 4 M + 3 F, 14 joints): 35.7%
% of total at indicated HS scores, HS 3 ([4]; 4 M + 3 F, 14 joints): 64.3%
% of total at indicated HS scores, HS 4 ([4]; 4 M + 3 F, 14 joints): 0%
Mean HS ± SEM ([4]; 4 M + 3 F, 14 joints): 2.71 ± 0.15
% of total at indicated HS scores, HS 2 ([4]; 4 M, 8 joints, 10 mg/kg i.p. thrice weekly): 62.5%
% of total joints, AS (1) ([4]; 4 M, 8 joints): 87%
% of total joints, AS (1.5–2) ([4]; 4 M, 8 joints): 13%
% of total at indicated HS scores, HS 3 ([4]; 4 M, 8 joints): 37.5%
% of total at indicated HS scores, HS 4 ([4]; 4 M, 8 joints): 0%
Mean HS ± SEM ([4]; 4 M, 8 joints): 2.37 ± 0.18
effect of peptide on joint damage ([4]; females, P>0.05): less evident
histological scores compared with untreated or DMSO-treated groups ([4]; male Tg197 mice, P<0.001): significantly lower histological scores
histological scores compared with untreated or DMSO-treated mice ([4]; males + females, P<0.05): significantly lower histological scores
inhibition at 5 µM [5]: 55.6%
